BigSolDB 2.1

CN(C/C=C/C#CC(C)(C)C)Cc1cccc2ccccc12.Cl
solubility (mole fraction)
Conditions	in ethanol	in ethyl acetate	in methanol	in n-propanol
278.15 K	0.0187	0.0022	0.0398	0.0187
280.65 K	0.0197	0.00255	0.0411	0.0193
283.15 K	0.0207	0.00304	0.0424	0.02
285.65 K	0.0217	0.0036	0.0439	0.0206
288.15 K	0.0229	0.00417	0.0453	0.0214
290.65 K	0.0241	0.00482	0.047	0.0221
293.15 K	0.0254	0.00557	0.0486	0.0228
295.65 K	0.0266	0.00626	0.0502	0.0237
298.15 K	0.0279	0.00715	0.0518	0.0245
300.65 K	0.0293	0.00821	0.0536	0.0254
303.15 K	0.0309	0.00919	0.0554	0.0262
305.65 K	0.0326	0.0105	0.0572	0.0271
308.15 K	0.0342	0.0119	0.059	0.028
310.65 K	0.036	0.0133	0.061	0.0291
313.15 K	0.0379	0.015	0.063	0.0301
